Drawing on patent US20260007758A1, “SO[…]-2 RECEPTOR (SST2R) NON-PEPTIDE DRUG CONJUGATES AND USES THEREOF” (Crinetics Pharmaceuticals, Inc., priority 2024, published 2026), this text covers EC50 for 11 molecules.

Type in all cases: cell-based
The target in test [1] is T1, human somatostatin receptor subtype 2 (Homo sapiens, UniProt P30874).
T1 construct: expressed in transfected cells
In words: Functional assay for SSTR2 agonists (HTRF cAMP). The conditions noted are these: CHO-K1 cells stably expressing human SST2; NKH477-stimulated cAMP; 20 min at 37 C; read-out: hSST2 cAMP Avg EC50. An excerpt: General overview: All five SSTR subtypes are Gi coupled G-protein coupled receptors (GPCRs) that lead to decreases in intracellular cyclic AMP (cAMP) when activated by an agonist. Therefore, measurement of intracellular cAMP levels can be used to assess whether compounds of the invention are agonists of SSTR subtypes (John Kelly, Troy Stevens, W. Joseph Thompson, and Roland Seifert, Current Protocols in Pharmacology. 2005, 2.2.1-2.2). One example of an intracellular cAMP assay is described below.
Four days prior to the assay, 2,000 Chinese hamster ovary cells (CHO-K1, ATCC #CCL-61) stably expressing the human somatostatin receptor subtype 2 are plated in each well of a 96-well tissue culture-treated plate in Ham's F12 growth media (ThermoFisher #10-080-CM) supplemented with 10% donor bovine serum (Gemini Bio-Products #100-506), 100 U/mL penicillin; 100 ug/mL streptomycin, 2 mM L-glutamine (Gemini Bio-Products #400-110) and 0.2 mg/mL hygromycin B (GoldBio #31282-04-9). The cells are cultured at 37° C., 5% CO2 and 95% humidity. cAMP is measured with HTRF dynamic cAMP assay (Cisbio. #62AM5PEJ) per manufacturer's instructions. […] The cells are incubated for 20 minutes at 37° C. (the final concentration of the compounds of the invention are typically 0-10,000 nM). The cells are treated with 50 μL of lysis buffer (HRTF cAMP kit, Cisbio) and incubated at room temperature for 30 minutes with rotary shaking at 600 rpm, and then diluted with 150 μL of stimulation buffer and shaken for an additional five minutes at 300 rpm. The lysate is transferred to 384-well plates and incubated for 1-24 hours at room temperature, and cAMP accumulation is detected by d2-labeled cAMP and Anti-cAMP-Cryptate. The time-resolved fluorescent signal is read using a m1000 Pro (Tecan) or CLARIOStar (BMG Labtech) microplate reader, where the samples are excited with light at 340 nm and emission light is measured at 620 nm and 665 nm. The data is expressed as a calculation of the fluorescence ratio (665 nm/620 nm). The intracellular cAMP concentrations are calculated by regression to a standard curve and are plotted vs, the concentration of the compounds of the invention. The EC50 of the compounds are calculated using standard methods. All data manipulations are in GraphPad Prism v9 (GraphPad, San Diego, CA).
A general note: Time-resolved FRET reads energy transfer from a long-lived donor to a nearby acceptor.

Another test concerns the target T2, SST2 (Homo sapiens, UniProt P30874).
T2 construct: host or cells: PathHunter CHO-K1 SST2 cells
The test can be described thus: PathHunter CHO-K1 SST2 Internalization Assay. Conditions: PathHunter CHO-K1 SST2 cells; 90 min at 37 C; luminescence; read-out: Internalization EC50. The procedure:
NDCs of the present invention were assessed in vitro using the human PathHunter CHO-K1 SST2 β-arrestin2 and PathHunter CHO-K1 SST2 Internalization Assays from DiscoverX. The CHO-K cells were seeded in 20 μLs of cell culture medium in a white-walled 384 well tissue culture-compatible plate at a density of 2500 cells/well. After a 48-hour incubation, cells were treated with 5 μLs of a 1:3 serially diluted SST2 NDC prepared at 5× concentration with a final top compound concentration of 10 uM for 90 min at 37 C and in 5% CO2. 11 dilutions were tested as well as one treatment that was compound free. After incubation, the media containing treatments were discarded and 20 μL of a working solution of Beta-Glo from Promega Beta-Go Assay System was added to each well. The plate was then incubated for 60 min at room temperature in the dark. Luminescence was measured using a Tecan plate reader. IC50 curves were generated using the nonlinear regression analysis (four-parameters) with GraphPad Prism 9. Results were the average of duplicates and are corrected for background.

Test [2] concerns NCI-H524 human small cell lung cancer cells. The test can be described thus: H524 assay: inhibition of cell proliferation (CellTiter Glo). Conditions: 2 h treatment, washout, additional 70 h incubation. The procedure: NDCs of the present invention were assessed in an in vitro assay evaluating the inhibition of cell proliferation. NCI-H524 (ATCC) human small cell lung cancer cells were plated in 96-well V-bottom plates (Costar) at a concentration of 5,000 cells/well. 24 h later, the cells were treated for 2 h with a NDC. NDC starting dose was 1 uM and two-fold serial dilutions were done for a total of 11 points. After 2 h of treatment, cells were spun down, and the drug-containing media was removed, and fresh complete media was added and used to resuspend the cells, which were spun again. After removal of the media, the cells were resuspended in complete medium and incubated for an additional 70 h. Cell proliferation was assessed using the CellTiter Glo Assay according to the standard protocol (Promega). Luminescence was measured using a TECAN plate reader. Percent proliferation inhibition was calculated using the following formula: % inhibition=(Luminescence Control−Luminescence Treatment)/Luminescence Control*100. IC50 curves were generated using the nonlinear regression analysis (four-parameter) with GraphPad Prism 9.
On the technique in general: In ATP-based viability assays light output follows the ATP content of the culture.

*1 amine or outer side, *2 acyl side, *3 side chain or, on linkers, in order; H or OH if unused. Where a SMILES comes first, the peptide text is derived from it. [ ]: non-standard residue; d: D form. The star is where a group is joined. X3 = Cc1cc(F)cc(-c2cnc(NCCNC(=O)CCOCCOCCOCCOCCC(=O)*)c(-c3nc4ccc(Cl)cc4[nH]3)c2N2CCC(N)CC2)c1; Dolaproine = CO[C@@H]([C@@H]1CCCN1)[C@@H](C)C(=O)O; Dil = CC[C@H](C)[C@H](NC)[C@@H](CC(=O)O)OC; PABC = O=C(OCc1ccc(N[*:1])cc1)[*:2]; X2 = C[C@@H](N*)[C@@H](O)c1ccccc1; Cit = NC(=O)NCCC[C@H](N)C(=O)O; NMeV = CN[C@H](C(=O)O)C(C)C; PEG1 = NCCOCCC(=O)O; Ahx = NCCCCCC(=O)O

T1 sequence (P30874 whole entry): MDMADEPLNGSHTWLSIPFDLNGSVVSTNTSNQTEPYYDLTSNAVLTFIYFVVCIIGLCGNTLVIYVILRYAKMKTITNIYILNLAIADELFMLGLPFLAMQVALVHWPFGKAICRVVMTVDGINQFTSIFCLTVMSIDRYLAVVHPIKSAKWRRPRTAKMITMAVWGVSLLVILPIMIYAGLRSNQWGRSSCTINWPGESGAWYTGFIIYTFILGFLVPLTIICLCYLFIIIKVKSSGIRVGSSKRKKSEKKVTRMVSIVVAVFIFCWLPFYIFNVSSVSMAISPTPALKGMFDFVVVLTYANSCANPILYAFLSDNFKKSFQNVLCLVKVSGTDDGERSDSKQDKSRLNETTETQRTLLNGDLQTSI
T2 sequence (P30874 whole entry): as above

As for `CC[C@H](C)[C@@H]([C@@H](CC(=O)N1CCC[C@H]1[C@H](OC)[C@@H](C)C(=O)N[C@H](C)[C@@H](O)c1ccccc1)OC)N(C)C(=O)[C@@H](NC(=O)[C@H](C(C)C)N(C)C(=O)OCc1ccc(NC(=O)[C@H](C)NC(=O)[C@@H](NC(=O)CCOCCC(=O)NCCNc2ncc(-c3cc(C)cc(F)c3)c(N3CCC(N)CC3)c2-c2nc3ccc(Cl)cc3[nH]2)C(C)C)c(O)c1)C(C)C` [Compound 17], the EC50 in test [1] stood at 0.44 nM; on SST2, 3.8 nM; in test [2], 5.4 nM.
The like results for `CC[C@H](C)[C@@H]([C@@H](CC(=O)N1CCC[C@H]1[C@H](OC)[C@@H](C)C(=O)N[C@H](C)[C@@H](O)c1ccccc1)OC)N(C)C(=O)[C@@H](NC(=O)[C@H](C(C)C)N(C)C(=O)OCc1ccc(NC(=O)[C@H](CCCNC(N)=O)NC(=O)[C@@H](NC(=O)CCOCCC(=O)N(C)CC(=O)NCCNc2ncc(-c3cc(C)cc(F)c3)c(N3CCC(N)CC3)c2-c2nc3ccc(Cl)cc3[nH]2)C(C)C)c(OCC(N)=O)c1)C(C)C` [Compound 21] were, in that order, 0.096 nM, 7.6 nM and 13 nM.
The like results for `CC[C@H](C)[C@@H]([C@@H](CC(=O)N1CCC[C@H]1[C@H](OC)[C@@H](C)C(=O)N[C@H](C)[C@@H](O)c1ccccc1)OC)N(C)C(=O)[C@@H](NC(=O)[C@H](C(C)C)N(C)C(=O)OCc1ccc(NC(=O)[C@H](CCCNC(N)=O)NC(=O)[C@@H](NC(=O)c2cc(NCCOCCC(=O)NCCNc3ncc(-c4cc(C)cc(F)c4)c(N4CCC(N)CC4)c3-c3nc4ccc(Cl)cc4[nH]3)cc(C(=O)NCCN)c2)C(C)C)cc1)C(C)C` [Compound 184] were, in that order, 0.063 nM, 1.8 nM and 240 nM.
As to `CC[C@H](C)[C@@H]([C@@H](CC(=O)N1CCC[C@H]1[C@H](OC)[C@@H](C)C(=O)N[C@H](C)[C@@H](O)c1ccccc1)OC)N(C)C(=O)[C@@H](NC(=O)[C@H](C(C)C)N(C)C(=O)OCc1ccc(NC(=O)[C@H](CCCNC(N)=O)NC(=O)[C@@H](NC(=O)[C@H](CCc2nnn[nH]2)NC(=O)CCOCCC(=O)NCCNc2ncc(-c3cc(C)cc(F)c3)c(N3CCC(N)CC3)c2-c2nc3ccc(Cl)cc3[nH]2)C(C)C)cc1C(=O)NCCN)C(C)C` [Compound 84], the EC50 in test [1] was determined as 0.28 nM; on SST2, 3.8 nM; in test [2] it was 580 nM.
For `CC[C@H](C)[C@@H]([C@@H](CC(=O)N1CCC[C@H]1[C@H](OC)[C@@H](C)C(=O)N[C@H](C)[C@@H](O)c1ccccc1)OC)N(C)C(=O)[C@@H](NC(=O)[C@H](C(C)C)N(C)C(=O)OCc1ccc(NC(=O)[C@H](CCCNC(N)=O)NC(=O)[C@@H](NC(=O)CCCCC(=O)NCCNc2ncc(-c3cc(C)cc(F)c3)c(N3CCC(N)CC3)c2-c2nc3ccc(Cl)cc3[nH]2)C(C)C)cc1C(=O)NCC(=O)O)C(C)C` [Compound 72], the EC50 worked out at 0.11 nM in test [1], 4.7 nM at SST2 and 40 nM in test [2].
Regarding `CC[C@H](C)[C@@H]([C@@H](CC(=O)N1CCC[C@H]1[C@H](OC)[C@@H](C)C(=O)N[C@H](C)[C@@H](O)c1ccccc1)OC)N(C)C(=O)[C@@H](NC(=O)[C@H](C(C)C)N(C)C(=O)OCc1ccc(NC(=O)[C@H](CCCNC(N)=O)NC(=O)[C@@H](NC(=O)c2cc(NCCOCCC(=O)NCCNc3ncc(-c4cc(C)cc(F)c4)c(N4CCC(N)CC4)c3-c3nc4ccc(Cl)cc4[nH]3)cc(C(=O)NCC(=O)S(N)(=O)=O)c2)C(C)C)cc1)C(C)C` [Compound 188], the values for the EC50 (in test [1]; at SST2; in test [2]) were 0.34 nM, 2.7 nM and 670 nM, respectively.
For `CC[C@H](C)[C@@H]([C@@H](CC(=O)N1CCC[C@H]1[C@H](OC)[C@@H](C)C(=O)N[C@H](C)[C@@H](O)c1ccccc1)OC)N(C)C(=O)[C@@H](NC(=O)[C@H](C(C)C)N(C)C(=O)OCc1ccc(NC(=O)[C@H](CCCNC(N)=O)NC(=O)[C@@H](NC(=O)CCOCCC(=O)NCCNc2ncc(-c3cc(C)cc(F)c3)c(N3CCC(N)CC3)c2-c2nc3ccc(Cl)cc3[nH]2)C(C)C)c(O[C@@H]2O[C@H](C(=O)NCCNC(=O)CCCCCO[PH](=O)OC3CCC(c4ccccc4)(c4ccccc4)CC3)[C@@H](O)[C@H](O)[C@H]2O)c1)C(C)C` (stereo partly drawn) [Compound 233] the same measures were 1 nM, 18 nM and 500 nM.
For `CC[C@H](C)[C@@H]([C@@H](CC(=O)N1CCC[C@H]1[C@H](OC)[C@@H](C)C(=O)N[C@H](C)[C@@H](O)c1ccccc1)OC)N(C)C(=O)[C@@H](NC(=O)[C@H](C(C)C)N(C)C(=O)OCc1ccc(NC(=O)[C@H](CCCNC(N)=O)NC(=O)[C@@H](NC(=O)CCOCCNC(=O)[C@H](CCC(=O)O)NC(=O)[C@H](CCC(=O)O)NC(=O)CCOCCOCCOCCOCCC(=O)NCCNc2ncc(-c3cc(C)cc(F)c3)c(N3CCC(N)CC3)c2-c2nc3ccc(Cl)cc3[nH]2)C(C)C)cc1)C(C)C` [Compound 190] (X3-EE[PEG1]V[Cit][PABC][NMeV]V[Dil][Dolaproine]-X2) the same measures were 0.33 nM, 14 nM and 3200 nM.
As for `CC[C@H](C)[C@@H]([C@@H](CC(=O)N1CCC[C@H]1[C@H](OC)[C@@H](C)C(=O)N[C@H](C)[C@@H](O)c1ccccc1)OC)N(C)C(=O)[C@@H](NC(=O)[C@H](C(C)C)N(C)C(=O)OCc1ccc(NC(=O)[C@H](C)NC(=O)[C@@H](NC(=O)CCOCCC(=O)NCCNc2ncc(-c3cc(F)cc(OC)c3)c(N3CCC(N)CC3)c2-c2nc3ccc(Cl)cc3[nH]2)C(C)C)c(O[C@@H]2O[C@H](C(=O)O)[C@@H](O)[C@H](O)[C@H]2O)c1)C(C)C` [Compound 139], the results for the EC50 (in test [1]; at SST2; in test [2]) were 0.1 nM, 4.9 nM and 30 nM, respectively.
Turning to `CC[C@H](C)[C@@H]([C@@H](CC(=O)N1CCC[C@H]1[C@H](OC)[C@@H](C)C(=O)N[C@H](C)[C@@H](O)c1ccccc1)OC)N(C)C(=O)[C@@H](NC(=O)[C@H](C(C)C)N(C)C(=O)OCc1ccc(NC(=O)[C@H](CCCNC(N)=O)NC(=O)[C@@H](NC(=O)c2cc(C(=O)NCC(=O)O)cc(N(C)CCOCCOCCOCCOCCC(=O)NCCNc3ncc(-c4cc(C)cc(F)c4)c(N4CCC(N)CC4)c3-c3nc4ccc(Cl)cc4[nH]3)c2)C(C)C)cc1)C(C)C` [Compound 159], the concentration for a half-maximal effect (EC50) in test [1] amounted to 1.2 nM; at SST2, 23 nM; in test [2] it was 130 nM.
`CC[C@H](C)[C@@H]([C@@H](CC(=O)N1CCC[C@H]1[C@H](OC)[C@@H](C)C(=O)N[C@H](C)[C@@H](O)c1ccccc1)OC)N(C)C(=O)[C@@H](NC(=O)[C@H](C(C)C)N(C)C(=O)OCc1ccc(NC(=O)[C@H](CCCNC(N)=O)NC(=O)[C@@H](NC(=O)CCCCCNC(=O)[C@H](CCC(=O)O)NC(=O)[C@H](CCC(N)=O)NC(=O)CCOCCOCCOCCOCCC(=O)NCCNc2ncc(-c3cc(C)cc(F)c3)c(N3CCC(N)CC3)c2-c2nc3ccc(Cl)cc3[nH]2)C(C)C)cc1)C(C)C` [Compound 192] (X3-QE[Ahx]V[Cit][PABC][NMeV]V[Dil][Dolaproine]-X2): the EC50 in test [1] was determined as 0.37 nM; at SST2, 12 nM; in test [2], 1300 nM.

The EC50 is the concentration that produces a half-maximal response.
